For assay [1], the target named is T1, Membrane-associated tyrosine- and threonine-specific cdc2-inhibitory kinase (Homo sapiens, UniProt Q99640).
T1 sequence (Q99640 whole entry): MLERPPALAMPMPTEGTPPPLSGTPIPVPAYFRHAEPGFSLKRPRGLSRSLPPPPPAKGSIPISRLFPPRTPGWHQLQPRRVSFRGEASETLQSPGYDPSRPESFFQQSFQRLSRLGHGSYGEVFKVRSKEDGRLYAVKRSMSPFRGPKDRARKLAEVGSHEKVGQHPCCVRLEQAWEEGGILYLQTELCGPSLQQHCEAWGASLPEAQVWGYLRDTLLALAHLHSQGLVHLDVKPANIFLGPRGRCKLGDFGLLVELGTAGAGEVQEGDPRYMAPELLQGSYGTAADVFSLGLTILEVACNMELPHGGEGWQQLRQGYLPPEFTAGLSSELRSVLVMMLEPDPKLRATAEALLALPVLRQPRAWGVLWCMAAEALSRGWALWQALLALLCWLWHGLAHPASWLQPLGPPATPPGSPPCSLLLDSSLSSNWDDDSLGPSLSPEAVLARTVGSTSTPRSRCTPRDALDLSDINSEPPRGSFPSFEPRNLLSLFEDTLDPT

Assay [2] has as its target Tyrosine-protein kinase Fyn (Homo sapiens, UniProt P06241).
The target of assay [3] is Serine/threonine-protein kinase SIK3 (Homo sapiens, UniProt Q9Y2K2).
Assay [4] concerns the target MAP kinase-activated protein kinase 2 (Homo sapiens, UniProt P49137).
In assay [5] the target is T2, Serine/threonine-protein kinase LATS1 (Homo sapiens, UniProt O95835).
T2 sequence (O95835 whole entry): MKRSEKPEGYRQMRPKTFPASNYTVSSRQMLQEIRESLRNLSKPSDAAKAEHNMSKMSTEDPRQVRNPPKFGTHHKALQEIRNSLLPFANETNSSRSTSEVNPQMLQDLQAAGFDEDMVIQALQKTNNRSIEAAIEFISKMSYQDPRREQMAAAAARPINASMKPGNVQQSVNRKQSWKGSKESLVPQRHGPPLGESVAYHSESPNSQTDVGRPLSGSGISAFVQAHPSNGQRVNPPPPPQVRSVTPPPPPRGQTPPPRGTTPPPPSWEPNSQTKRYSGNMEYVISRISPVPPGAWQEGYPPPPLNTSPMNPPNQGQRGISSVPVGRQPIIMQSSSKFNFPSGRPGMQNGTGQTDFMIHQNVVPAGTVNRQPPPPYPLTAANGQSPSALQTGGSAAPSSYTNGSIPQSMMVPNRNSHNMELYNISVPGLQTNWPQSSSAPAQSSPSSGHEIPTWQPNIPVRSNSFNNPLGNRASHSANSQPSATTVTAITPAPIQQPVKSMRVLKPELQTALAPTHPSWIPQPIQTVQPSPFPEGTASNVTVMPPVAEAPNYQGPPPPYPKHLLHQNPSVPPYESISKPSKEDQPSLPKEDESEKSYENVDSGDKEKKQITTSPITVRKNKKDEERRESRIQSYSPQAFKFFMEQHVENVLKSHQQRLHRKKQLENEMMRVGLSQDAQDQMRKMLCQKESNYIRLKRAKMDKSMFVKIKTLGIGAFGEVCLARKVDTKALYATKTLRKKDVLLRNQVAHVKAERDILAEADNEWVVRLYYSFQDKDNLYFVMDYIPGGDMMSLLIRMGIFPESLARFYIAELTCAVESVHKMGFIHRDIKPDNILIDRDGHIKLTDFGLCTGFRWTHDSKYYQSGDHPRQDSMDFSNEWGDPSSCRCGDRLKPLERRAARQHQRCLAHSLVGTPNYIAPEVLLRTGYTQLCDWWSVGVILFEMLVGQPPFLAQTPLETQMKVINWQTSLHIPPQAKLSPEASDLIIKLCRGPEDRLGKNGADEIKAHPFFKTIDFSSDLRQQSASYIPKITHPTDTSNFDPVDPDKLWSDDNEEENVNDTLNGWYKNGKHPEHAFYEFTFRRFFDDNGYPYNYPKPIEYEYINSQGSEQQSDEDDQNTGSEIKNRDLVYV

The target in assay [6] is Interleukin-1 receptor-associated kinase 1 (Homo sapiens, UniProt P51617).
The target of assay [7] is Tyrosine-protein kinase Yes (Homo sapiens, UniProt P07947).
Assay [8] has as its target PAS domain-containing serine/threonine-protein kinase (Homo sapiens, UniProt Q96RG2).
Another assay addresses Myosin-10 (Homo sapiens, UniProt P35580).

The source made the active and inactive calls. Rule as the data show it, for most assays here: actives have a measured Kd and inactives only a lower limit. Bounds are passed on as bounds.
Also: in the data inactive means no Kd found up to 30 µM.

Sequence of Tyrosine-protein kinase Fyn (P06241 whole entry): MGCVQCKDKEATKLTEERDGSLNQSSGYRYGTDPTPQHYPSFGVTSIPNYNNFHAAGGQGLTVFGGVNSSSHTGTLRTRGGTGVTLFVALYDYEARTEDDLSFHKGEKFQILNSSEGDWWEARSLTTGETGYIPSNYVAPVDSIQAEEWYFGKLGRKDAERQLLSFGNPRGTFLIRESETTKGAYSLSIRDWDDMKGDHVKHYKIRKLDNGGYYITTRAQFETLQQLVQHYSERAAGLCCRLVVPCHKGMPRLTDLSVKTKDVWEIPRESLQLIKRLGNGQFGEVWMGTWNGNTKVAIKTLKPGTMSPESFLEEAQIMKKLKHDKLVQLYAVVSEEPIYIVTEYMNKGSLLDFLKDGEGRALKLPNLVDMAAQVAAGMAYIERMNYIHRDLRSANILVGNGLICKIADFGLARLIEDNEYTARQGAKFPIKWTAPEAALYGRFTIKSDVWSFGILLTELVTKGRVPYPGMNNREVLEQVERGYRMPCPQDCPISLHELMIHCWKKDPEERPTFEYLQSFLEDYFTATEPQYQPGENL
Sequence of MAP kinase-activated protein kinase 2 (P49137 whole entry): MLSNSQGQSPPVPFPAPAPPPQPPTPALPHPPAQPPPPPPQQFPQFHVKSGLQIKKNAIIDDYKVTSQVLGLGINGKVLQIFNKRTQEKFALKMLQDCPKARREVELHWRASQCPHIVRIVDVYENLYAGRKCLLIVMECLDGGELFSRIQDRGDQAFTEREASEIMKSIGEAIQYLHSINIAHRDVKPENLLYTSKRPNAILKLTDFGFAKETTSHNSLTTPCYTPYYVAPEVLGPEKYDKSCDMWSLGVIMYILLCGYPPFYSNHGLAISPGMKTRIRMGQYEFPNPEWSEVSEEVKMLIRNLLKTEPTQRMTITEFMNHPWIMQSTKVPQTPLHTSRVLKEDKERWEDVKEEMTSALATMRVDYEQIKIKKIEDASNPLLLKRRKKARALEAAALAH
Sequence of PAS domain-containing serine/threonine-protein kinase (Q96RG2 whole entry, the tested form may be a part): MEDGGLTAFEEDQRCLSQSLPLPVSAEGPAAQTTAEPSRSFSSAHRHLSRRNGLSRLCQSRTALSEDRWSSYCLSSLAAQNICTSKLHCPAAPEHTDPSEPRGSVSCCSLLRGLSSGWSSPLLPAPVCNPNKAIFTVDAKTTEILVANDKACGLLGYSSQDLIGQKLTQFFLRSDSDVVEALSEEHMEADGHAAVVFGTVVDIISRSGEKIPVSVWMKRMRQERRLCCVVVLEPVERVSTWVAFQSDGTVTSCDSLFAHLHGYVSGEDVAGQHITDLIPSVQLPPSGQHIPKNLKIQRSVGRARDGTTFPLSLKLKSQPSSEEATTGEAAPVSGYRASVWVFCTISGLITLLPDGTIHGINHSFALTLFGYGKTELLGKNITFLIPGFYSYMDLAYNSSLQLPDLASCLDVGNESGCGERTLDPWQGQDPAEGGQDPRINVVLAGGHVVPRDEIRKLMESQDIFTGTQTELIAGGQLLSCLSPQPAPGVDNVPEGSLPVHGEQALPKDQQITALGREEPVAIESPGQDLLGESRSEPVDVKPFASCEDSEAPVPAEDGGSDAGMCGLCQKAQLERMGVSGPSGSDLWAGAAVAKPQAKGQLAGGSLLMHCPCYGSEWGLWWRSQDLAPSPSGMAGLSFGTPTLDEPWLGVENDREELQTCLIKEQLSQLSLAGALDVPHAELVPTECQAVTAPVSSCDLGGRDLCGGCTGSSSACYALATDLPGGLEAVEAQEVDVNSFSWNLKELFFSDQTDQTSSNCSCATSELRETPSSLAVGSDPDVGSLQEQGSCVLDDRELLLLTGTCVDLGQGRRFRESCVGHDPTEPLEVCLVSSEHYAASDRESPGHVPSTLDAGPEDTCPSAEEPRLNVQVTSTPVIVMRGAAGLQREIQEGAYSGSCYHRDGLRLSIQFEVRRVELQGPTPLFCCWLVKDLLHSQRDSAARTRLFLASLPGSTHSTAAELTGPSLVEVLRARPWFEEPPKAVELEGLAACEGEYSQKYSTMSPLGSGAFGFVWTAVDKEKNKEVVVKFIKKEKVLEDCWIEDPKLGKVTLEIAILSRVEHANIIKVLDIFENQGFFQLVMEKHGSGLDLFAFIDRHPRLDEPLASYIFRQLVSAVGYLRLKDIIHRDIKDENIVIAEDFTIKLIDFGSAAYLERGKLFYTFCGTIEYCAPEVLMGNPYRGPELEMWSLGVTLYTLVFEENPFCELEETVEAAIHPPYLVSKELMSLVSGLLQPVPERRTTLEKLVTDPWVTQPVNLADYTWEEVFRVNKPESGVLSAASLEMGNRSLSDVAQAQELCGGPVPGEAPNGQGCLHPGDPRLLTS
Sequence of Myosin-10 (P35580 whole entry): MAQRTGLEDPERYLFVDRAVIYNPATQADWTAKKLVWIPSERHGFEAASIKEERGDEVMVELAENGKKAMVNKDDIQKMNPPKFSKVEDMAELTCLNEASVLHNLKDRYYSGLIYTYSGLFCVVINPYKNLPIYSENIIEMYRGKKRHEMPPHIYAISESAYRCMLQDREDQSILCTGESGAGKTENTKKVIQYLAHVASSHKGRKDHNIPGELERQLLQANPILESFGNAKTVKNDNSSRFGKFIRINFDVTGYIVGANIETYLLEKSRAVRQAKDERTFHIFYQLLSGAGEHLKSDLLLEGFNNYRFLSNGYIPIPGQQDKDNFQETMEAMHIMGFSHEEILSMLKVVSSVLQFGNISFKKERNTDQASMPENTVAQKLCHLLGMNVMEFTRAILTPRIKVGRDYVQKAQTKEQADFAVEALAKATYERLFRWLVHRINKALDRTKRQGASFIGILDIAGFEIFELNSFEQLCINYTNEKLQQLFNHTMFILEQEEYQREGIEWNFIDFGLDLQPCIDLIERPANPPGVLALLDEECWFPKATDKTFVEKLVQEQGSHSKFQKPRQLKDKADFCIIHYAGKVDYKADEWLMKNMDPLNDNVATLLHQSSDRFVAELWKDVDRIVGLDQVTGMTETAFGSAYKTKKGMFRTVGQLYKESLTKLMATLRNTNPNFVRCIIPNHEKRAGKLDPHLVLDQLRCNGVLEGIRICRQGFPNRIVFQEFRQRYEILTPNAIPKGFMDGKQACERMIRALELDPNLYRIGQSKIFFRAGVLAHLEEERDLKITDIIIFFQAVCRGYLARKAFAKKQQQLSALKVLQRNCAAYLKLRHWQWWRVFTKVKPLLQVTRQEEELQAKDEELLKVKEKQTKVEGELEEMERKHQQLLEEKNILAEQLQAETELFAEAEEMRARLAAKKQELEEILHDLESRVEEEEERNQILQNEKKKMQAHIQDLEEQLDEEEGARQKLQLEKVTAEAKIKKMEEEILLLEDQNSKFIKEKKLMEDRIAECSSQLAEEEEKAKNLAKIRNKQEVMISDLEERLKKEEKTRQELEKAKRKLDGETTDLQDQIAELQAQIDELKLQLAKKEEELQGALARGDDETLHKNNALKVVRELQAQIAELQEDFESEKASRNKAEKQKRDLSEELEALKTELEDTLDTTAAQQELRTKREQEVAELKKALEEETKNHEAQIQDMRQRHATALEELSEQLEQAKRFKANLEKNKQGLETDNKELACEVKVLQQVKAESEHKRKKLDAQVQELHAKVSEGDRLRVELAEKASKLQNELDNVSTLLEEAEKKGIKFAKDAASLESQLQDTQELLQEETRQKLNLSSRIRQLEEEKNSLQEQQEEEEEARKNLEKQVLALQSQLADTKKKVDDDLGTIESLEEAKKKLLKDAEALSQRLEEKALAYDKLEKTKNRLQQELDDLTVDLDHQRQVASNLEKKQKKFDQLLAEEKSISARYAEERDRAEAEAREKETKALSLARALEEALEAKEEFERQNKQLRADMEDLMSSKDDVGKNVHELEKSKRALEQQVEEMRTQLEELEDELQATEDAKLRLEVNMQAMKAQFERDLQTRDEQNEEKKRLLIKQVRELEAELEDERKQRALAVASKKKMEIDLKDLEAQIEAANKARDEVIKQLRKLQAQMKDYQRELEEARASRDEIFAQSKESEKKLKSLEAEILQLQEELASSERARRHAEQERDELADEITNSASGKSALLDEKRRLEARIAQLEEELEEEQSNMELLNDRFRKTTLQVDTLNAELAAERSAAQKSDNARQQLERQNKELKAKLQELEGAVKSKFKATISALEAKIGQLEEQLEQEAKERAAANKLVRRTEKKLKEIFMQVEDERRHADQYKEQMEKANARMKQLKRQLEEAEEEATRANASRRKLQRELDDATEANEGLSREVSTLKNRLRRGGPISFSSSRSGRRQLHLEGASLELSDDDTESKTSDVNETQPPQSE
Sequence of Interleukin-1 receptor-associated kinase 1 (P51617 whole entry): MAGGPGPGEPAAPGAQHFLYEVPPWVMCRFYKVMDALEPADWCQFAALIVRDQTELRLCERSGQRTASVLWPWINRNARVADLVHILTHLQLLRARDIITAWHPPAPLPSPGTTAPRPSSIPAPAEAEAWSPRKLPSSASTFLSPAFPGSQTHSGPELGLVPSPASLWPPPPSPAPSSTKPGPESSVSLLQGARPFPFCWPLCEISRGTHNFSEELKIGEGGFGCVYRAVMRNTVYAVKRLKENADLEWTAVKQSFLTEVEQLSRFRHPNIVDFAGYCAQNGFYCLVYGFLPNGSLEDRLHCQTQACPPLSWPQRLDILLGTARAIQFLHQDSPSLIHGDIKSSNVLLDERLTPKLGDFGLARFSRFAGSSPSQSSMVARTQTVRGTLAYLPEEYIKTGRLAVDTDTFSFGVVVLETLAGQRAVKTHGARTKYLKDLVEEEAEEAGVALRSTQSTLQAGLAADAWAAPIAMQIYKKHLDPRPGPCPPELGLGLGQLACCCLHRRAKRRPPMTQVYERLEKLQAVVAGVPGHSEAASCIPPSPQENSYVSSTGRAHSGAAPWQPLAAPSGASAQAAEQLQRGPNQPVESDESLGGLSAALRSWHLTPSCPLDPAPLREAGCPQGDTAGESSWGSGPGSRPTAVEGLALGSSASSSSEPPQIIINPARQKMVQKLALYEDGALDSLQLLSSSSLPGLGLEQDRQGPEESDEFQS

As usually defined, the Kd is the equilibrium constant for the complex coming apart. In the case of `C[C@@H](Oc1cc(C(=O)Nc2ccc(C(=O)N3CCN(C)CC3)cc2)nnc1N)c1c(Cl)ccc(F)c1Cl`, the Kd in assay [1], in assay [2], in assay [3], in [4], in assay [5] and in assay [6] was > 30 µM (inactive) throughout. Also, the Kd in [7] is > 30 µM (inactive).
Take `C[C@H]1CNCCCN1S(=O)(=O)c1cccc2cncc(F)c12`: the Kd in [1], in assay [2], in assay [3], in assay [4], in [5] and in assay [6] was > 30 µM (inactive) each time. In addition, the Kd in assay [7] is > 30 µM (inactive).
Take `CCNC(=O)C#Cc1ccc2c(c1)NC(=O)/C2=C(\Nc1ccc(CN(C)C)cc1)c1ccccc1`: the Kd in assay [1] is > 30 µM (inactive); in assay [2], 0.187 µM (active); in assay [3] it was > 30 µM (inactive); in [4], > 30 µM (inactive); in assay [5], 0.635 µM (active); in assay [6], > 30 µM (inactive). Besides, in assay [7], the Kd is 0.094 µM (active).
Regarding `COc1cc(Nc2ncc3c(n2)-c2ccc(Cl)cc2C(c2c(F)cccc2OC)=NC3)ccc1C(=O)O` [ALISERTIB], the Kd in assay [1], in [3], in [8], in assay [5] and in assay [7] was > 30 µM (inactive) each time.
For the molecule `CNC(=O)c1ccccc1Sc1ccc2c(/C=C/c3ccccn3)n[nH]c2c1` [AXITINIB], the Kd (in assay [8]; on Myosin-10) was > 30 µM (inactive) throughout.
Take `COc1cc([C@@H]2c3cc4c(cc3[C@H](O)[C@H]3COC(=O)[C@@H]23)OCO4)cc(OC)c1OC` [AXL-1717]: the Kd (in [1]; in assay [2]; in assay [3]; in assay [4]; on Myosin-10; in [5]) was > 30 µM (inactive) throughout. The Kd in assay [6] and in [7] was > 30 µM (inactive) throughout.
Regarding `Cn1cc(C2=C(c3cn(C4CCN(Cc5ccccn5)CC4)c4ccccc34)C(=O)NC2=O)c2ccccc21` [ENZASTAURIN], the Kd at Myosin-10 is > 30 µM (inactive).
Take `C[C@@H](Oc1cc(-n2cnc3ccc(CN4CCN(C)CC4)cc32)sc1C(N)=O)c1ccccc1C(F)(F)F` [GSK-461364]: the Kd (in [8]; on Myosin-10) was > 30 µM (inactive) throughout.
As for `CN(C[C@@H]1COCCO1)S(=O)(=O)Nc1ccc2ccc3ncc(-c4cnn(C)c4)cc3c(=O)c2c1` [MK-2461], the Kd (in assay [1]; in assay [2]; in assay [3]; in assay [4]; on Myosin-10; in assay [5]) was > 30 µM (inactive) in each case. Further, the Kd in [6] and in assay [7] was > 30 µM (inactive) throughout.
On to `Cc1[nH]c(/C=C2\C(=O)Nc3ccccc32)c(C)c1CCC(=O)O` [ORANTINIB], for which the Kd (in assay [1]; in assay [3]; in assay [8]; at Myosin-10; in assay [7]) was > 30 µM (inactive) throughout.
Take `NC(=O)c1c(OCc2c(F)cc(Br)cc2F)nsc1NC(=O)NCCCCN1CCCC1` [OSI-632]: the Kd is > 30 µM (inactive) in [1]; > 30 µM (inactive) in [8]; > 30 µM (inactive) on Myosin-10; > 30 µM (inactive) in [5]; 0.881 µM (active) in assay [7].
On to `CCCCCCCCCCCCCCCCCCOP(=O)([O-])OC1CC[N+](C)(C)CC1` [PERIFOSINE], for which the Kd (in assay [1]; in [2]; in [3]; in assay [8]; in assay [4]; at Myosin-10) was > 30 µM (inactive) throughout. The Kd in assay [5], in assay [6] and in assay [7] was > 30 µM (inactive) throughout.
Regarding `CC(=O)NCC(=O)N1[C@@H]2CC[C@H]1c1ccc(Nc3ncc(C(F)(F)F)c(NC4CCC4)n3)cc12` [PF-03814735], the Kd in assay [1] was > 30 µM (inactive); in assay [3] it was 9.65 µM (active); in assay [8], > 30 µM (inactive); on Myosin-10, > 30 µM (inactive); in [5] it was 0.406 µM (active); in [7], > 30 µM (inactive).
For `CNC(=O)c1cc(Oc2ccc(NC(=O)Nc3cc(C(C)(C)C)nn3-c3ccc4ncccc4c3)c(F)c2)ccn1` [REBASTINIB], the Kd was > 30 µM (inactive) in assay [1]; > 30 µM (inactive) in assay [3]; > 30 µM (inactive) in assay [8]; 4.69 µM (active) in assay [4]; > 30 µM (inactive) at Myosin-10; > 30 µM (inactive) in [5].
Turning to `O=C(NOCCO)c1cc(CN2OCCCC2=O)c(F)c(F)c1Nc1ccc(I)cc1F` [RO-4987655], the Kd in assay [8] was > 30 µM (inactive).
As to `N#CC[C@H](C1CCCC1)n1cc(-c2ncnc3[nH]ccc23)cn1` [RUXOLITINIB], the Kd (in [8]; on Myosin-10) was > 30 µM (inactive) each time.
As for `CCS(=O)(=O)c1cccc(-c2cc(C(=O)NC3CCN(C)CC3)c(C)c3[nH]c4ncc(C)cc4c23)c1` [TAK-901], the Kd was > 30 µM (inactive) in assay [1]; 0.095 µM (active) in [2]; > 30 µM (inactive) in assay [3]; > 30 µM (inactive) in assay [8]; > 30 µM (inactive) in assay [4]; > 30 µM (inactive) on Myosin-10. In addition, the Kd is > 30 µM (inactive) in assay [5], > 30 µM (inactive) in assay [6] and 0.022 µM (active) in assay [7].
In the case of `COc1cc2c(Nc3ccc(Cl)c(Cl)c3F)ncnc2cc1OC[C@@H]1C[C@@H]2CN(C)C[C@@H]2C1` [TESEVATINIB], the Kd in [1] is > 30 µM (inactive); in assay [2] it was > 30 µM (inactive); in assay [3] it was > 30 µM (inactive); in [8], > 30 µM (inactive); in assay [4], 1.52 µM (active); on Myosin-10, > 30 µM (inactive). The Kd in assay [5] was > 30 µM (inactive); in assay [6] it was > 30 µM (inactive); in [7] it was 3.94 µM (active).
Consider `Cc1cc(Nc2ncnc3ccc(NC4=NC(C)(C)CO4)cc23)ccc1Oc1ccn2ncnc2c1` [TUCATINIB], for which the Kd (in assay [1]; in assay [2]; in assay [3]; in assay [8]; in assay [4]; on Myosin-10) was > 30 µM (inactive) in each case. In addition, the Kd in [5], in assay [6] and in assay [7] was > 30 µM (inactive) throughout.
Turning to `C[C@@H](N)c1ccc(C(=O)Nc2ccnc3[nH]ccc23)cc1` [Y-39983], the Kd is > 30 µM (inactive) in assay [1]; > 30 µM (inactive) in assay [2]; 0.071 µM (active) in [3]; > 30 µM (inactive) in [8]; > 30 µM (inactive) in [4]; > 30 µM (inactive) at Myosin-10. In addition, the Kd in assay [5], in assay [6] and in assay [7] was > 30 µM (inactive) throughout.
